Results taken from patent publication US20040235856A1, “Treatment of incontinence” (Pfizer Inc, priority 2003, published 2004).
Several values for one entry are separate records, joined by “and”; a condition that tells them apart may be missing. Identical values can stand only once.

What was measured:
[1] = system: ovariectomised, birth traumatised rats; test: Leak point pressure in ovariectomised, birth traumatised female rats; format: in vivo, Sprague Dawley rats
Method: In order to evaluate whether the effects of 5-HT2C agonists on urethral function was present in species other than the guinea pig, leak point pressure was measured in the absence and presence of MK-212 in a known model of urethral function in the rat (Lin A. S. et al. (1998) Urology 52:143-51; Sievert K. D. et al. (2001) J Urol. 166, 311-317; Resplande J et al (2002) J Urol. 168, 323-30), namely ovariectomised, birth traumatised rats.
Ovariectomy and simulated birth trauma were carried out on 8 female Sprague Dawley rats as described previously (Lin A. S. et al. (1998) Urology 52:143-51; Sievert K. D. et al. (2001) J Urol. 166, 311-317; Resplande J et al (2002) J Urol. 168, 323-30). Six weeks subsequent to recovery all animals underwent investigation of leak point pressure, initially rats were anaesthetised with halothane (4%), carried in oxygen (3-4L min^−1) and were maintained at an appropriate surgical plane with urethane (25% w/v; 0.5 ml 100 g^−1 body weight). The trachea, a jugular vein and a carotid artery were cannulated for respiratory ventilation, injection of test compound and monitoring of blood pressure, respectively. A midline laporatomy was performed to expose the urinary bladder and a cystometry tube was inserted through a small incision in the dome of the bladder and secured in place. The abdominal wound was closed tightly around the externalised cystometry tube, which, in turn, was connected to an infusion pump and pressure transducer, for filling the bladder and for recording intravesical pressure, respectively. Baseline leak point pressures (LPP) were established by slow elevation of a saline containing bag connected to the bladder and pressure transducer via the cystometry tube. LPP was defined as the bladder pressure at the point where fluid was first noted at the urethral meatus. Between 4 and 7 baseline readings were made before iv bolus administration of MK-212 (0.1 mg kg^−1). Following a 2 min delay to allow for distribution LPP measurements were repeated in an identical manner to that described above, between 3 and 8 measures were taken.

mice = conditions: subcutaneous administration; only significant at the highest dose tested; cited from earlier work
anaesthetised guinea pig [2] = test: EUS EMG activity during normal bladder filling in anaesthetised guinea pig; format: in vivo
Text: (§1) In order to explore what subtypes of 5-HT receptors may be involved in enhancing the sacral spinal drive to the EUS, the effects of m-CPP (Sigma Aldrich Product number C-5554), MK-212 (Tocris Cat No 0941), YM-348 (WO 01/83487), Ro 60-0175 (Tocris Cat No 1854), WAY-161503 (Tocris Cat No 1801), and Example 1-N in WO 03/000663, which have been reported to be 5-HT2C receptor agonists, were investigated in an anaesthetised guinea pig model specifically designed to measure urethral continence mechanisms and leak point pressure using two paradigms. Firstly the activity of urethral striated musculature in response to increased abdominal pressure and so the pressure required to induce leak and secondly, the response of urethral striated musculature during normal bladder filling so as to maintain continence, as measured by changes in electromyographic activity of this continence maintaining sphincter.
Experiments were performed in adult female guinea pigs, weighing 620-707 g. All animals were initially anaesthetised with halothane (4%), carried in oxygen (3-4L min^−1) and were maintained at an appropriate surgical plane with urethane (25% w/v; 0.5 ml 100 g^−1 body weight). The trachea, a jugular vein and a carotid artery were cannulated for respiratory ventilation, injection of test compound and monitoring of blood pressure, respectively. A midline laporatomy was performed to expose the urinary bladder and a cystometry tube was inserted through a small incision in the dome of the bladder and secured in place. The abdominal wound was closed tightly around the externalised cystometry tube, which, in turn, was connected to an infusion pump and pressure transducer, for filling the bladder and for recording intravesical pressure, respectively. […]
Following a 30 min post surgery stabilisation period, the bladder was filled at a rate of 150 μl min^−1 with physiological saline (room temperature), until initiation of a micturition reflex or leak was observed. […] Additionally, EUS EMG activity and intravesical pressures were recorded throughout bladder filling. […]

anaesthetised guinea pig [3] = test: Abdominal weight inducing micturition or leak and EUS EMG activity in anaesthetised guinea pig; format: in vivo; conditions: for % of Control Abdominal Weight Inducing Micturition or Leak: bladder at 75% of threshold volume
Text: as §1
Experiments were performed in adult female guinea pigs, weighing 620-707 g. All animals were initially anaesthetised with halothane (4%), carried in oxygen (3-4L min^−1) and were maintained at an appropriate surgical plane with urethane (25% w/v; 0.5 ml 100 g^−1 body weight). The trachea, a jugular vein and a carotid artery were cannulated for respiratory ventilation, injection of test compound and monitoring of blood pressure, respectively. A midline laporatomy was performed to expose the urinary bladder and a cystometry tube was inserted through a small incision in the dome of the bladder and secured in place. The abdominal wound was closed tightly around the externalised cystometry tube, which, in turn, was connected to an infusion pump and pressure transducer, for filling the bladder and for recording intravesical pressure, respectively. Electromyographic (EMG) wire leads were inserted into the EUS striated muscle layer opposed to the dorsal surface of the symphysis pubis.
Following a 30 min post surgery stabilisation period, the bladder was filled at a rate of 150 μl min^−1 with physiological saline (room temperature), until initiation of a micturition reflex or leak was observed. Following micturition or leak, the bladder was drained via the externalised cystometry tube. Bladder filling was repeated at least 3 times in order to establish a mean bladder threshold capacity for initiation of micturition or leak. Additionally, EUS EMG activity and intravesical pressures were recorded throughout bladder filling. Subsequently 1 of 2 protocols was carried out.
1. Once a threshold bladder volume, which induced micturition or leak, was established, 75% of this volume was used for the next stage of the experiment. The bladder was filled (150 μl min^−1) to 75% of threshold volume with physiological saline and, through the use of a specially constructed frame, weights were positioned on the ventral surface of the abdomen of the animal just rostral to the position of the bladder. Starting at 50 g, then 60 g and then at increasing increments of 20 g, weights were placed on the animal's abdomen until micturition/leakage of fluid was observed. EUS EMG activity and intravesical pressure were recorded while weights were applied to the abdomen. The main parameters investigated were minimum abdominal weight required to induce micturition or leak at 75% of bladder threshold volume, and maximum EUS EMG activity at micturition or leak. Test drug or vehicle was injected intravenously immediately after the bladder was filled to 75% of threshold volume, and 60-120 sec before applying the first abdominal weight (50 g).
Agonists were tested at doses between 0.1 and 3.0 mg kg^−1. In addition the effect of the reported 5-HT2C selective antagonist SB 242084 (Sigma, Cat-No: S-8061) (1 mg kg^−1) on agonist-induced effects was investigated in some animals.

[4] = 0.1 mg/kg iv bolus, individual animals 1-8
[5] = 0.3 mg kg^-1, filling 150 μl min^-1, FIG. 1b

## Clc1cncc(N2CCNCC2)n1 [MK-212]
[1]; 0.1 mg kg^-1
  animals in which LPP pressure increased: 7 of 8
[1]; 0.1 mg kg^-1, N=7
  mean increase in LPP (mean ± standard deviation): 7.1±2.6 mmHg
[1]; [4]
  Increase in LPP over baseline: 10.2 mmHg and 5.5 mmHg and 7.0 mmHg and 0.4 mmHg and 3.6 mmHg and 6.0 mmHg and 10.9 mmHg and 6.7 mmHg
  LPP (mean ± SD) after MK-212: 30.6 (3.8) mmHg and 23.4 (3.4) mmHg and 21.8 (1.7) mmHg and 18.2 (1.5) mmHg and 27.6 (1.5) mmHg and 30.7 (1.2) mmHg and 33.5 (1.6) mmHg and 23.0 (2.6) mmHg

## FC(F)(F)c1ccc(N2CCNCC2)nc1Cl [Org-12962, 1-[6-chloro-5-(trifluoromethyl)-2-pyridinyl]piperazine]
mice
  urine wet spot size: reduce urine wet spot size

## Cc1cc2c(cc1Cl)N(C(=O)Nc1ccc(Oc3cccnc3C)nc1)CC2 [SB 242084]
Anaesthetised guinea pig [2]; 1 mg kg^-1, in those animals tested
  effect of antagonist on agonist-induced effects: abolished the effects of applied 5HT2c agonists

## O=C1Nc2cc(Cl)c(Cl)cc2N2CCNCC12 (stereo not shown) [Way 161503]
Anaesthetised guinea pig [2]; [5]
  EUS EMG activity during normal bladder filling: potentiated
  bladder volume at which EUS EMG activity increases: increases in activity occurred at lower bladder volumes than in drug free conditions

## Clc1cccc(N2CCNCC2)c1 [m-CPP, m-chlorophenylpiperazine]
Anaesthetised guinea pig [3]; 0.3 mg kg^-1 iv.
  % of Control EUS EMG Activity: 110 ± 43 % of Control
  % of Control Abdominal Weight Inducing Micturition or Leak: 128 ± 6 % of Control
Anaesthetised guinea pig [3]; 1.0 mg kg^-1 iv.
  % of Control EUS EMG Activity: 135 ± 10 % of Control
  % of Control Abdominal Weight Inducing Micturition or Leak: 139 ± 12 % of Control
Anaesthetised guinea pig [3]; 3.0 mg kg^-1
  increase in EUS EMG activity compared with controls: 56%
  increase of the weight required to induce micturition or leak compared with controls: 66%
Anaesthetised guinea pig [3]; 3.0 mg kg^-1 iv.
  % of Control EUS EMG Activity: 156 ± 18 % of Control
  % of Control Abdominal Weight Inducing Micturition or Leak: 166 ± 9 % of Control
